The subject of data set [1] is hepatoma cell lines. The experiment in a line: DDC intoxication of hepatoma cell lines. Type of data set: cell-based. The settings on record: hepatoma cell lines incubated for up to 72 hours in DMEM and 10% FCS. As to the method: The hepatoma cell lines incubated for up to 72 hours in culture medium (DMEM and 10% FCS, Gibco) supplemented with DDC (EC50=50 μg/ml of medium) or with up to 100 μM BSO are another suitable in vitro model mimicking observations made in patients suffering from the diseases according to the invention.

The test system of data set [2] is DDC- or GF intoxicated mice. The experiment in a line: Toxic memory effect upon reintoxication with DDC or GF after recovery. Type of data set: in vivo, mouse. The settings on record: 10 weeks DDC or GF, 4 weeks recovery, reexposure 24 to 72 hours with simultaneous treatment. The source says: Mouse livers respond to DDC- or GF intoxication first with ballooning of hepatocytes and formation of a denser keratin IF network. After around 6 weeks of intoxication, ballooned hepatocytes show a reduced density of the keratin IF and early MBs can be observed as fine granules associated with the keratin IF network. Continuation of intoxication leads to the appearance of large MBs typically located in the perinuclear cytoplasmic region. […] Upon cessation of intoxication, MBs disappear within several weeks. At 4 weeks of recovery from intoxication, there are groups of hepatocytes devoid of cytoplasmic keratin filaments but still containing small remnants of MBs at the cell periphery in association with desmosomes. If such mice are reexposed to DDC or GF numerous MBs reappear within 24 to 72 hours (Stumptner C. et al., 2001, J. Hepatol., 34: 665-675). This enhanced formation of MBs upon reintoxication was interpreted—in analogy to allergic reactions—as a toxic memory effect.
In another set of experiments, 10 week-intoxication of mice with DDC or GF is followed by 4 weeks of recovery.

For data set [3] the following is noted: fed in drinking water for 3 to 7 days, 500 μM or 1 mM (MitoVit E 500 μM); cited from earlier work.
Data set [4] relates to human epithelial cell cancer xenografts. The experiment in a line: Nude mice tumor xenografts. It is filed as in vivo, mouse. The method, then:
Tumor cell lines or primary tumors that are xenografted subcutaneously according to standard methods (Li K. et al., 2003, Cancer Res., 63(13): 3593-3597) include colon adenocarcinomas, invasive ductal carcinomas of the breast, small and non-small cell lung carcinoma, prostate tumors, pancreatic tumors and stomach tumors.
Tumor-derived cell lines (grown in DMEM/10% FBS) are harvested in log-phase growth, washed twice with PBS, resuspended in 1 ml PBS (2.5×10^7 cells/ml), and injected subcutaneously into the right flank of a nude mouse (Hsd: athymic nu/nu, Harlan Winkelmann; aged between 5 and 6 weeks) at 5×10^6 cells/mouse (0.2 ml). Tumor growth is monitored every other day for the indicated periods (depending on the cell type). Tumor size is determined by the product of two perpendicular diameters and the height above the skin surface.

The test system of data set [5] is human cell lines intoxicated with DDC or BSO. The experiment in a line: ROS formation in cell lines intoxicated with DDC or BSO. It is filed as cell-based. The settings on record: simultaneous treatment at concentrations corresponding to EC50.
Source text: Another simple set of experiments employing hepatoma cell lines (e.g. HepG2 or Hep3B), the SNU-398 hepatocellular carcinoma-derived cell line (ATCC No. CRL-2233, LGC Promochem, Germany), the HUH-7 human carcinoma-derived cell line (Japanese collection of Research Biosources JCRB 0403) or the Tib-73 mouse embryonic liver cell line (ATCC TIB 73=BNL CL2 derived from BAL/c mouse, MD, USA) allows measurement of ROS production in these cells upon DDC intoxication.
To determine ROS production in for example hepatoma cell lines a standard experimental protocol according to Example 8 is applied. Tested hepatoma cells are grown in 96-well plates in culture medium (DMEM supplemented with 10% FCS, Gibco) to 80% confluency, subsequently washed with HBSS and incubated in the dark with DHE (10-50 μM) for 10 minutes at 37° C. Cells are then washed twice with Hank's balanced salt solution (HBSS, Gibco) to remove excess dye. Fluorescence is monitored in a fluorescence microscope (Olympus, Hamburg, Germany).
Alternatively, the generation of ROS is measured by using the fluoroprobe 5-(and-6)-chloromethyl-2′,7′-dichlorodihydrofluorescein diacetate acetyl ester (CM-H2DCFDA, Molecular Probes, Goettingen, Germany) which is converted to fluorescent dichlorofluorescien (DCF; Djordjevic T. et al., 2004, Antioxidants & Redox Signaling, 6: 713-720). To determine DCF fluorescence in a microplate reader (Tecan, Crailsheim, Germany), cells (e.g. HepG2, Hep3B or SNU-398) are grown in 96-well plates to 80% confluency. […] After several washes with HBSS to remove excess dye, fluorescence is monitored by using 480 nm excitation and 540 nm emission wavelength. DCF fluorescence is standardized to the number of viable cells using the Alamar Blue test according to the manufacturer's instructions (Biosource, Nivelles, Belgium). […] The absorbance is then measured at the wavelength of 580 μm.
For data set [6], the system named is mitochondria within isolated cells. Particulars: in vitro; cited from earlier work.
The conditions of data set [7]: intraperitoneal or i.v. (tail vein) injections, mice; cited from earlier work.
The conditions of data set [8]: according to Jauslin M. L. et al., 2003, FASEB J.; cited from earlier work.
The conditions of data set [9]: fed to mice on a long term basis; cited from earlier work.
In data set [10] the test system is patients having liver cirrhosis and a history of hepatitis C virus (HCV) infection. Particulars: patients with liver cirrhosis and HCV history (VitE group); cited from earlier work.
In data set [11] the test system is choline deficient diet fed rats. The settings on record: cited from earlier work.

pEC50: −log10 of the molar value.

With `CCOC(=O)C1=C(C)NC(C)=C(C(=O)OCC)C1C` [DDC], the EC50 in data set [1] is on record as 50 μg/ml of medium.
With `COc1c(O)c(C)c(CCCCCCCCCC[P+](c2ccccc2)(c2ccccc2)c2ccccc2)c(O)c1OC.CS(=O)(=O)[O-]` [MitoS], in data set [2], the “toxic memory effect (reappearance of MBs)” value is recorded as “reduced or abolished”. Further, in data set [3], the “gross signs of toxicity” value was “without any gross signs of toxicity”. Besides, in [4], the growth of tumors entry is reported as “reduced growth of tumors”, the “necrosis of the tumors” value is “increased necrosis of the tumors” and the “vascularization of the tumor xenografts” value is recorded as “decreased vascularization”. Also, the ROS formation entry in data set [5] is recorded as “significant reduction in ROS formation”.
As for `Cc1c(C)c2c(c(C)c1O)CCC(C)(CC[P+](c1ccccc1)(c1ccccc1)c1ccccc1)O2` (stereo not drawn) [MitoVit E, [2-(3,4-dihydro-6-hydroxy-2,5,7,8-tetramethyl-2H-1-benzopyran-2-yl)ethyl]-triphenylphosphonium bromide], the accumulation by mitochondria entry in [6] was “rapidly and selectively accumulated by mitochondria”. The maximum tolerated dose in data set [7] was 6 mg/kg/day. In addition, the “toxic memory effect (reappearance of MBs)” value in data set [2] is listed as “reduced or abolished”. For the same compound, the “gross signs of toxicity” value in data set [3] is on record as “without any gross signs of toxicity”. The pEC50 in [8] is 6.38. In addition, in data set [9], the “concentrations within the brain, heart, liver, and muscle” value is recorded as “potentially therapeutically effective concentrations”; the safety of feeding result is reported as “fed safely”. For the same compound, the ROS formation result in data set [5] is on record as “significant reduction in ROS formation”.
For the compound `C[P+](c1ccccc1)(c1ccccc1)c1ccccc1` [TPMP, reference compound], the safety of feeding result in data set [9] is listed as “fed safely”.
On to `Cc1c(C)c2c(c(C)c1O)CC[C@@](C)(CCC[C@H](C)CCC[C@H](C)CCCC(C)C)O2` [alpha-tocopherol], for which the “liver function, hepatocarcinogenesis, cumulative survival” value in data set [10] is listed as “neither improvement of liver function, suppression of hepatocarcinogenesis, nor improvement of cumulative survival”.
With vitamin E, the “development of fatty liver and oxidative stress” value in [11] is recorded as “neither prevented the development of fatty liver nor reduced the oxidative stress”.

One may read the pEC50 as the EC50 on a negative log10 scale, so that one unit is a factor of ten.

Values taken from patent publication US20070225255A1, “Use of Mitochondrially Targeted Antioxidant in the Treatment of Liver Diseases and Epithelial Cancers” (priority 2004, published 2007).
